Measured values from patent US12263248B2, “Compounds and compositions for intracellular delivery of therapeutic agents” (ModernaTX, Inc., priority 2018, dated 2025).

Columns and labels:
[1] = Particle size and polydispersity index of nanoparticle compositions (Zetasizer Nano ZS); format: physicochemical
Summary of the method: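 Nanoparticle compositions are diluted in 1×PBS, then size and polydispersity index are read on a Zetasizer Nano ZS instrument.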

[2] = Encapsulation efficiency of RNA (QUANT-IT RIBOGREEN RNA assay); format: physicochemical
Summary of the method: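 RiboGreen fluorescence (ex ~480, em ~520 nm) compared between intact samples and Triton X-100-lysed samples after 15 min at 37 °C in TE buffer, pH 7.5. Percent free RNA is the blank-corrected intact/disrupted ratio.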

[3] = N/P 3, i.v. bolus at 5 mpk, Sprague Dawley rats; 5 mg/kg
Protocol: Sprague Dawley rats were administered with nanoparticles of the disclosure via i.v. bolus at 5 mpk. The nanoparticle contained two mRNA encoding a broadly neutralizing influenza antibody in a 2:1 ratio.

SMILES: CCCCCCCCC(CC)OC(=O)CCCCCCCN(CCCCCCCC(=O)OC(CCCCCCCC)CCCCCCCC)CCCNc1c(NC)c(=O)c1=O (stereo not shown) [Compound 301, Heptadecan-9-yl 8-((3-((2-(methylamino)-3,4-dioxocyclobut-1-en-1-yl)amino)propyl)(8-oxo-8-(undecan-3-yloxy)octyl)amino)octanoate]
- Diameter ([1]; N/P 3 (Table 43)): 68 nm
- PDI ([1]; N/P 3 (Table 43)): 0.09
- Diameter ([1]; N/P 5.8 (Table 43)): 69 nm
- PDI ([1]; N/P 5.8 (Table 43)): 0.24
- % EE ([2]; N/P 3 (Table 43)): 86%
- % EE ([2]; N/P 5.8 (Table 43)): 96%
- Clinical Observations [3]: signs of decreased activity
